Assay results published in patent US11236354B2, “Glyphosate-n-acetyltransferase (GLYAT) sequences and methods of use” (PIONEER HI-BRED INTERNATIONAL, INC., priority 2013, dated 2022).
Values joined by “and” are separate entries in the source; they are usually repeats but may differ in a detail not shown here. Equal entries are not always repeated.

Legend:
Assay in all cases: Substrate saturation kinetic analysis of purified GLYAT
[1] = target: GLYAT (glyphosate-N-acetyltransferase), parent, SEQ ID NO:1 (Bacillus licheniformis, UniProt Q65LG7, E119R/E14D/E65Q/E67K/E68K/G37R/G38S/I132T/I135V/I15L/I19V/I53V/I91V/K101R/K144R/K58Q/L105M/L106I/L145I/L26I/L36T/L97I/M75V/R47G/R92K/T33S/T89S/V114A/Y130F/Y31F/Y45F)
[2] = target: GLYAT variant SEQ ID NO:6 (derived from SEQ ID NO:1 and 2) (Bacillus licheniformis, UniProt Q65LG7, A28V/D131E/E119K/E14D/E65Q/E67K/E68K/G37R/I132T/I135A/I15L/I19V/I53V/I91V/K101R/K144R/K58Q/L105M/L106I/L26I/L36T/L97I/M75A/R47G/R92K/T89S/V114A/V4I/Y130F/Y45F/Y46C); settings: pH 7.0
[3] = target: GLYAT high specificity variant SEQ ID NO:29 (derived from SEQ ID NO:1 and 2; C29I, F31Y; motif VIMYETDLL, SEQ ID NO:174) (Bacillus licheniformis, UniProt Q65LG7); format: biochemical
Method: E. coli cultures in LB or 2×YT were grown overnight at 37° C. to saturation. The cells were used as a 2% inoculum into fresh media. When OD reached 0.6, IPTG was added to 0.2 mM and growth was continued for at least 6 hours. Cells were harvested by centrifugation and stored at −80° C. Cells were lysed with BPER (Pierce) containing 1 mM dithiothreitol, 0.2 mg/ml lysozyme, 2 mg/ml protease inhibitor cocktail (Sigma bacterial cell cocktail, P8465) and endonuclease. […] Purity as evaluated by polyacrylamide gel electrophoresis was deemed consistently high enough to be assumed to be 100%. Protein concentration was determined with the Bradford assay using a large-scale lot of produced GLYAT protein as standard.
Kinetic parameters for various substrates were obtained using a range of seven substrate concentrations plus a blank containing none of the varied substrate. […] Absorbance was monitored for one minute with a Spectramax 384 Plus plate reader (Molecular Devices). If the amino acid present at position 30 (29 if alanine is absent at position 2) was cysteine, absorbance was monitored at 235 nm, which directly detects cleavage of the sulfoester bond of acetyl CoA. […]

[4] = target: novel GLYAT variants of Table 3 (high specificity variants derived from SEQ ID NO:1 and 2) (Bacillus licheniformis, UniProt Q65LG7); format: biochemical; settings: lowest value in novel variants
Method: (§1) E. coli cultures in LB or 2×YT were grown overnight at 37° C. to saturation. The cells were used as a 2% inoculum into fresh media. When OD reached 0.6, IPTG was added to 0.2 mM and growth was continued for at least 6 hours. Cells were harvested by centrifugation and stored at −80° C. Cells were lysed with BPER (Pierce) containing 1 mM dithiothreitol, 0.2 mg/ml lysozyme, 2 mg/ml protease inhibitor cocktail (Sigma bacterial cell cocktail, P8465) and endonuclease. Lysate supernatants were passed through a column of NHS-activated Agarose (Thermo, #26197) derivatized with coenzyme A. Columns were washed with 25 mM Hepes, pH 7, containing progressively higher concentrations of KCl, then eluted with 25 mM Hepes, 100 mM KCl, 10% ethylene glycol and 1 mM acetyl CoA. Purity as evaluated by polyacrylamide gel electrophoresis was deemed consistently high enough to be assumed to be 100%. Protein concentration was determined with the Bradford assay using a large-scale lot of produced GLYAT protein as standard.
(§2) Kinetic parameters for various substrates were obtained using a range of seven substrate concentrations plus a blank containing none of the varied substrate. The non-varied substrate was present at a saturating concentration. Six-microliter aliquots of 50-fold concentrated stock solutions of the varied substrate were placed in a 96-well assay plate (Greiner BioOne UV-Star). Reactions were started with the addition of 294 ul of 25 mM Hepes, pH 7.0, 100 mM KCL, 10% ethylene glycol, the non-varied substrate and 10 to 200 nM enzyme. Absorbance was monitored for one minute with a Spectramax 384 Plus plate reader (Molecular Devices). If the amino acid present at position 30 (29 if alanine is absent at position 2) was cysteine, absorbance was monitored at 235 nm, which directly detects cleavage of the sulfoester bond of acetyl CoA. If the amino acid present at position 30 (29 if alanine is absent at position 2) was isoleucine, 0.5 mM 5,5′-dithiobis-(2-nitrobenzoic acid), which reacts with the coenzyme A thiol generated in the enzyme catalyzed reaction, was included in the reaction mix and absorbance was monitored at 412 nm. Initial rates were processed by the Softmax software to obtain kinetic parameters, using the double-reciprocal transformation.

[5] = target: GLYAT variant SEQ ID NO:7 (derived from SEQ ID NO:1 and 2) (Bacillus licheniformis, UniProt Q65LG7, A28V/D131E/E119K/E14D/E65Q/E67K/E68K/E79G/E83D/G37R/G38S/G48A/I132L/I135A/I15L/I19V/I2L/I53V/I91V/K101R/K144R/K58Q/L105M/L106I/L26I/L36T/L97I/M75V/N109F/R47G/R92K/T33S/T89S/V114A/Y130F/Y31W/Y45F); format: biochemical
Method: as §1, §2

[6] = target: T1, native GLYAT (glyphosate-N-acetyltransferase), SEQ ID NO:173 (Bacillus licheniformis, UniProt Q65LG7); format: biochemical; settings: Table 5; native GLYAT SEQ ID NO:173; ratio of kcat/Km asp to kcat/Km glyph
T1 sequence (Q65LG7 1-146): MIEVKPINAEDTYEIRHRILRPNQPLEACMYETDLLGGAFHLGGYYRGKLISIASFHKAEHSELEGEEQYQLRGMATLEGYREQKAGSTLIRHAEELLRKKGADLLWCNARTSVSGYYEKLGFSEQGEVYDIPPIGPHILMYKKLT
Method: as §1, §2

[7] = target: GLYAT variant SEQ ID NO:8 (derived from SEQ ID NO:1 and 2) (Bacillus licheniformis, UniProt Q65LG7, A28V/D131E/E119K/E14D/E65Q/E67K/E68K/E83D/G37R/G38S/I132T/I135A/I15L/I53V/I91V/K101R/K144R/K58Q/L105M/L106I/L26I/L36T/L97I/M75V/N8S/R47G/R92K/T89S/V114A/Y130F/Y45F); settings: pH 7.0
[8] = pH 7.0, non-varied substrate saturating

N[C@@H](CC(=O)O)C(=O)O [aspartate]
kcat/KM with aspartate ([1]; 25 mM Hepes, pH 7.0): 228 M⁻¹ s⁻¹ | kcat/Km asp, % glyph ([1]; Table 5 and text, specificity (kcat/KM asp/kcat/KM glyph), listed as asp): 1.3% and 1.27% | Asp as % of glyph (kcat/KM asp / kcat/KM glyph) ([1]; pH 7.0): 1.273% | Asp as % of glyph (kcat/KM asp / kcat/KM glyph) [2]: 0.052% | activity with aspartate (kcat/Km) ([3]; 25 mM Hepes, pH 7.0): 8 M⁻¹ s⁻¹ | kcat/Km asp, % glyph ([3]; Table 5, ratio of kcat/Km asp to kcat/Km glyph): 0.013% | specificity (kcat/KM asp/kcat/KM glyph) [4]: ≥ 0.014% | kcat/KM with aspartate ([4]; 25 mM Hepes, pH 7.0): ≥ 1.7 M⁻¹ s⁻¹ | Asp as % of glyph (kcat/KM asp / kcat/KM glyph) ([5]; pH 7.0): 0.154% | kcat (aspartate) [5, 8]: 1.52 s⁻¹ | kcat/KM (aspartate) [5, 8]: 13.7 M⁻¹ s⁻¹ | kcat/Km asp, % glyph [6]: 55.6% | Asp as % of glyph (kcat/KM asp / kcat/KM glyph) [7]: 0.079%
